Source: patent US20050112573A1, “Method of detecting toxic substance” (priority 2001, published 2005)

System: yeast genes (level of expressed mRNA)
Experiment: DNA chip analysis of expressed mRNA of yeast genes after 2 h culture with a toxic chemical substance
Assay type: cell-based, Saccharomyces cerevisiae S288C
Conditions: for The level of expressed mRNA in the presence of chemical substance/ (ratio to absence of chemical substance): stress protein genes, DNA chip
Procedure: Yeast (Saccharomyces cerevtisiae S288C (α SUC2mal mel gap2 CUP1)) were cultured at 25° C. on YPD medium (yeast extract 1%, polypepton 2%, glucose 2%). One of toxic chemical substances was added to the cell at logarithmic growth phase, and the cell was further cultured for two hours. Cell was cultured without any chemical substance in the same condition, and was used as control. Concentrations of the chemical substances were defined to inhibit the growth of the yeast but not lead to death.
After the completion of cultivation, the culture was centrifuged to collect the cells. To the cells, sodium acetate buffer (50 mM sodium acetate, 10 mM EDTA, 1% SDS) was added, and the mixture was shaken at 65° C. for five minutes, followed by returning to room temperature, and obtaining the supernatant, which procedure was repeated two times. To the supernatant, ½ amount of a solution of phenol/chloroform was added, and the mixture was centrifuged to give a supernatant, which was added with an equal amount of chloroform, and the mixture was centrifuged to give a supernatant. To the supernatant, an equal amount of isopropanol containing 0.3 M sodium acetate was added, and the mixture was allowed to stand at room temperature for 30 minutes, after which the mixture was centrifuged to give a sediment of the whole RNAs. Seventy % ethanol was added to the sediment, and the mixture was again centrifuged to give a sediment, which was then dried and dissolved in water. mRNA was isolated from the whole RNAs as followings. In view of the fact that a poly A chain is attached to the 3′ terminus of mRNA, a polynucleotide having a poly T structure which was immobilized on the surface of latex beads was used to trap the mRNA, and then the mRNA was washed and eluted with spine column (Oligotex-dT30<Super>mRNA Purification Kit, Takara). Reverse transcription of the mRNA was conducted with a reverse transcriptase (Super Script II Reverse Transcriptase; catalogue No. 18064-014, GibcoBRL) using fluorescence-labeled nucleotides to give cDNAs that were introduced with Cy3-dUTP or Cy5-dUTP during the reverse transcription.
The labeled cDNAs were dissolved in TE buffer (10 mM Tris-HCl/1 mM EDTA, pH8.0), and the solution was dropped on the DNA chip containing the whole genes of yeast (DNA Chip Research Inc. Japan) so that the cDNAs were hybridized on the DNA chip at 65° C. for over 12 hours. The fluoresces intensity of the DNA chip was read with a scanner, and the ratio relative to the fluorescence intensity resulting from the absence of chemical substance was estimated as the following, which is shown in Tables 1 to 9: [formula]
In the Tables, “Intensity” indicated in the rightmost column is a value of the level of expressed mRNA of each gene in control cells as divided by the average level of the expressions of the whole genes.

## COc1cc(CNC(=O)CCCCC=CC(C)C)ccc1O [(12), 8-methyl-N-vanillyl-6-nonenamide]
Yeast gene YDR073W, ratio of DNA chip fluorescence intensity to that without chemical substance
  The level of expressed mRNA in the presence of chemical substance/ (in its absence), gene YDR073W: 0.8
Yeast gene YDR079W, energy system protein genes, 2 h culture with the chemical, ratio to control without chemical
  The level of expressed mRNA in the presence of chemical substance/ in its absence, gene YDR079W: 1.1
Yeast gene YDR079W, mitochondria-located protein genes, 2 h culture with chemical
  The level of expressed mRNA in the presence of chemical substance/ (ratio to absence), gene YDR079W: 1.1
Yeast gene YDR084C
  The level of expressed mRNA in the presence of chemical substance/The level of expressed mRNA in the absence of chemical substance: 0.7
Yeast gene YDR085C
  The level of expressed mRNA in the presence of chemical substance/The level of expressed mRNA in the absence of chemical substance: 1.6
Yeast gene YDR104C
  The level of expressed mRNA in the presence of chemical substance/The level of expressed mRNA in the absence of chemical substance: 1.1
Yeast gene YDR115W
  The level of expressed mRNA in the presence of chemical substance/The level of expressed mRNA in the absence of chemical substance: 0.9
Yeast gene YDR259C
  The level of expressed mRNA in the presence of chemical substance/The level of expressed mRNA in the absence of chemical substance: 1.0
Yeast gene YDR297W, ratio of DNA chip fluorescence intensity to that without chemical substance
  The level of expressed mRNA in the presence of chemical substance/ (in its absence), gene YDR297W: 1.0
Yeast gene YDR315C
  The level of expressed mRNA in the presence of chemical substance/The level of expressed mRNA in the absence of chemical substance: 0.6
Yeast gene YDR358W
  The level of expressed mRNA in the presence of chemical substance/The level of expressed mRNA in the absence of chemical substance: 1.1
Yeast gene YDR377W, mitochondria-located protein genes, 2 h culture with chemical
  The level of expressed mRNA in the presence of chemical substance/ (ratio to absence), gene YDR377W: 0.9
Yeast gene YDR387C, ratio of DNA chip fluorescence intensity to that without chemical substance
  The level of expressed mRNA in the presence of chemical substance/ (in its absence), gene YDR387C: 0.9
Yeast gene YDR388W
  The level of expressed mRNA in the presence of chemical substance/The level of expressed mRNA in the absence of chemical substance: 0.8
Yeast gene YDR406W
  The level of expressed mRNA in the presence of chemical substance/The level of expressed mRNA in the absence of chemical substance: 3.9
Yeast gene YDR432W
  The level of expressed mRNA in the presence of chemical substance/The level of expressed mRNA in the absence of chemical substance: 0.7
Yeast gene YDR481C
  The level of expressed mRNA in the presence of chemical substance/The level of expressed mRNA in the absence of chemical substance: 0.9
Yeast gene YDR510W
  The level of expressed mRNA in the presence of chemical substance/The level of expressed mRNA in the absence of chemical substance: 1.4
Yeast gene YEL039C
  The level of expressed mRNA in the presence of chemical substance/ (ratio to absence of chemical substance): 0.6
Yeast gene YEL042W
  The level of expressed mRNA in the presence of chemical substance/The level of expressed mRNA in the absence of chemical substance: 1.0
Yeast gene YEL066W
  The level of expressed mRNA in the presence of chemical substance/The level of expressed mRNA in the absence of chemical substance: 0.8
Yeast gene YER015W, ratio of DNA chip fluorescence intensity to that without chemical substance
  The level of expressed mRNA in the presence of chemical substance/ (in its absence), gene YER015W: 0.9
Yeast gene YER039C
  The level of expressed mRNA in the presence of chemical substance/The level of expressed mRNA in the absence of chemical substance: 0.9
Yeast gene YER057C
  The level of expressed mRNA in the presence of chemical substance/ (ratio to absence of chemical substance): 1.5
Yeast gene YER107C
  The level of expressed mRNA in the presence of chemical substance/The level of expressed mRNA in the absence of chemical substance: 0.7
Yeast gene YER130C
  The level of expressed mRNA in the presence of chemical substance/The level of expressed mRNA in the absence of chemical substance: 1.0
Yeast gene YFL028C
  The level of expressed mRNA in the presence of chemical substance/The level of expressed mRNA in the absence of chemical substance: 1.1
Yeast gene YFL043C
  The level of expressed mRNA in the presence of chemical substance/The level of expressed mRNA in the absence of chemical substance: 0.9
Yeast gene YFR015C, two hours culture
  The level of expressed mRNA in the presence of chemical substance/The level of expressed mRNA in the absence of chemical substance: 0.4
Yeast gene YFR024C
  The level of expressed mRNA in the presence of chemical substance/The level of expressed mRNA in the absence of chemical substance: 1.5
Yeast gene YGL035C, ratio of DNA chip fluorescence intensity to that without chemical substance
  The level of expressed mRNA in the presence of chemical substance/ (in its absence), gene YGL035C: 0.9
Yeast gene YGL115W, ratio of DNA chip fluorescence intensity to that without chemical substance
  The level of expressed mRNA in the presence of chemical substance/ (in its absence), gene YGL115W: 0.9
Yeast gene YGL115W
  The level of expressed mRNA in the presence of chemical substance/ (ratio to absence of chemical substance): 0.9
Yeast gene YGL158W
  The level of expressed mRNA in the presence of chemical substance/The level of expressed mRNA in the absence of chemical substance: 1.3
Yeast gene YGL187C, mitochondria-located protein genes, 2 h culture with chemical
  The level of expressed mRNA in the presence of chemical substance/ (ratio to absence), gene YGL187C: 0.8
Yeast gene YGL205W, ratio of DNA chip fluorescence intensity to that without chemical substance
  The level of expressed mRNA in the presence of chemical substance/ (in its absence), gene YGL205W: 1.1
Yeast gene YGL229C
  The level of expressed mRNA in the presence of chemical substance/The level of expressed mRNA in the absence of chemical substance: 1.1
Yeast gene YGR008C, two hours culture
  The level of expressed mRNA in the presence of chemical substance/The level of expressed mRNA in the absence of chemical substance: 2.0
Yeast gene YGR062C, energy system protein genes, 2 h culture with the chemical, ratio to control without chemical
  The level of expressed mRNA in the presence of chemical substance/ in its absence, gene YGR062C: 1.0
Yeast gene YGR062C, mitochondria-located protein genes, 2 h culture with chemical
  The level of expressed mRNA in the presence of chemical substance/ (ratio to absence), gene YGR062C: 1.0
Yeast gene YGR096W, ratio of DNA chip fluorescence intensity to that without chemical substance
  The level of expressed mRNA in the presence of chemical substance/ (in its absence), gene YGR096W: 0.8
Yeast gene YGR136W
  The level of expressed mRNA in the presence of chemical substance/The level of expressed mRNA in the absence of chemical substance: 1.2
Yeast gene YGR189C
  The level of expressed mRNA in the presence of chemical substance/The level of expressed mRNA in the absence of chemical substance: 1.3
Yeast gene YGR213C
  The level of expressed mRNA in the presence of chemical substance/The level of expressed mRNA in the absence of chemical substance: 10.6
Yeast gene YGR257C
  The level of expressed mRNA in the presence of chemical substance/The level of expressed mRNA in the absence of chemical substance: 0.9
Yeast gene YGR281W
  The level of expressed mRNA in the presence of chemical substance/The level of expressed mRNA in the absence of chemical substance: 2.4
Yeast gene YGR287C, ratio of DNA chip fluorescence intensity to that without chemical substance
  The level of expressed mRNA in the presence of chemical substance/ (in its absence), gene YGR287C: 1.1
Yeast gene YGR288W, ratio of DNA chip fluorescence intensity to that without chemical substance
  The level of expressed mRNA in the presence of chemical substance/ (in its absence), gene YGR288W: 0.9
Yeast gene YHL028W
  The level of expressed mRNA in the presence of chemical substance/ (ratio to absence of chemical substance): 1.5
Yeast gene YHL046C
  The level of expressed mRNA in the presence of chemical substance/ (ratio to absence of chemical substance): 1.1
Yeast gene YHL047C
  The level of expressed mRNA in the presence of chemical substance/The level of expressed mRNA in the absence of chemical substance: 2.6
Yeast gene YHR004C
  The level of expressed mRNA in the presence of chemical substance/The level of expressed mRNA in the absence of chemical substance: 0.9
Yeast gene YHR071W
  The level of expressed mRNA in the presence of chemical substance/The level of expressed mRNA in the absence of chemical substance: 0.8
Yeast gene YHR139C
  The level of expressed mRNA in the presence of chemical substance/The level of expressed mRNA in the absence of chemical substance: 1.6
Yeast gene YHR142W
  The level of expressed mRNA in the presence of chemical substance/The level of expressed mRNA in the absence of chemical substance: 1.3
Yeast gene YHR210C, ratio of DNA chip fluorescence intensity to that without chemical substance
  The level of expressed mRNA in the presence of chemical substance/ (in its absence), gene YHR210C: 0.5
Yeast gene YIL006W, ratio of DNA chip fluorescence intensity to that without chemical substance
  The level of expressed mRNA in the presence of chemical substance/ (in its absence), gene YIL006W: 0.9
Yeast gene YIL011W
  The level of expressed mRNA in the presence of chemical substance/ (ratio to absence of chemical substance): 0.6
